Measured values published in patent US6410575B1, “Viral treatment” (The Procter & Gamble Company, priority 1999, dated 2002).
pEC50, pIC50: −log10 of the molar value. Converted amounts (≈) assume the structure as drawn. “And” between values parts separate entries of the source, which are not always exact repeats. Equal values may be shown once. Read-outs that look alike come from different tables or passages of the source.

How the values were obtained:
[1] = target: HIV-1 integrase (Human immunodeficiency virus type 1 group M subtype B, UniProt P04585); test: Integrase inhibition assay (autoradiography); assay type: biochemical
Text: A biochemical integrase assay described by Craigie et at (HIV, vol. 2: A practical Approach) Biochemistry, Molecular Biology and Drug Discovery, Ed. J. Kam 1995) to screen agents for their ability to inhibit HIV-1 integrase can be used. In this system, a kinased oligonucleotide serves as the target of 3′ processing and the subsequent strand transfer reaction. The 3′ processing reaction involves the removal of 2 nucleotides from the 3′ ends of the substrate. This is followed by the strand transfer reaction in which the 3′ ends are joined to the exposed 5′ ends. The 20 μl reaction mixture contains 25 mM MOPS (pH 7.2), […] BSA, 10 mM β-mercaptoethanol, 10% glycerol; 7.5 mM MnCl2, 25 nM (7 ng) substrate (Oligo's Etc., Wilsonville, Oreg.) and 200 nM (128 ng) integrase (NIAID AIDS Research and Reference Reagent Program, Bethesda, Md.). The reaction proceeds at 37° C. for 1-2 hours and is terminated by the addition of 20 μl of sequencing stop solution (USB Amersham, Arlington Heights, Ill.). The reaction products are visualized by autoradiography following electrophoresis in 15% polyacrylamide 6M Urea gel. The substrate migrates as a 30 mer, the product of 3′ processing migrates as an N-2 band and the strand transfer products migrate more slowly at various sizes larger than the substrate.
The mechanism of action of the (5-aryl-1,2,4-thiadiazol)-3-yl thiourea derivatives or (5-aryl-1,2,4-thiadizol)-3-yl urea derivatives is not known.

[2] = system: Human Herpes Virus 8 (HHV8); test: Kaposi's sarcoma / HHV8 DNA copy number in TPA-induced BCBL-1 cells; assay type: cell-based
Method: The DNA copy number and the toxicity value were measured and compared with Cidofovir. Kaposi's sarcoma (KS) is a cancer that is often found in people with weak immune systems, such as those taking immunosuppressants or those with AIDS. The exact nature of the disease is uncertain, but it is almost always found in association with HHV8.

[3] = system: hepatitis B; test: In vitro virus production test of hepatitis B, HEPG2 2.2.15; assay type: cell-based; settings: for IC50: Hepatitis B virus, HepG2 2.2.15, hepatitis B, read-out: IC50
[4] = system: HEPG2 2.2.15; test: Toxicity values in the hepatitis B test; assay type: cell-based; set-up: Toxicity Values, sample / Toxicity Values, mean: unit not given here
[5] = system: HIV-1 cell line, CEMRF; test: Long term in vitro study, CEMRF; assay type: cell-based; settings: 7 μg/ml
Method: (§1) Toxicity quantification involves the XTT-based evaluation. Assays were designed to characterize the long term effects of the compounds on virus production and to characterize the longer term effects of the compounds on virus production from chronically HIV infected cells.
(§2) CEM-SS cells chronically infected with HIV isolate, for example SKI (CEM-SKI) are cultured in RPMI1640 tissue culture medium supplemented with 10% fetal bovine serum and antibiotics. […] CEM-SKI or other infected cells with no added drug are used as the control cells.
(§3) Cells are allowed to grow to a density of approximately 1×10^6 cells/ml and are then passaged at a 1:10 dilution. […] The drug concentration in the flask is then increased two-fold and the cells maintained as above.
(§4) The cell populations contain integrated copies of the HIV genome and constitutively produce HIV at relatively high levels or are latently infected and only produce virus after stimulation with phorbol esters, tumor necrosis factor or IL6(U1 and ACH2). Reductions in virus products were observed when quantifying supernatant reverse transcriptase activity.
The results with CEMRF cells was reported at weekly intervals.
The CEMRF is a viral strain of the CEMSS cell line.

[6] = system: U937JE225R, a protease resistant strain; test: Long term in vitro study, U937JE225R; assay type: cell-based, HIV
Method: as §1, §2, §3, §4
The results with U937JE225R cells was reported at weekly intervals.

[7] = system: vero cells; test: Herpes simplex testing, toxicity (TC50); set-up: unit not given beside the values
[8] = HEPG2 2.2.15, replicate experiment

SMILES: NC(=S)Nc1nsc(-c2ccccc2)n1
- pEC50 [1]: < 3.37
- activity as an integrase inhibitor [1]: did not show activity
- remaining activity at 1 µg/mL ([1]; 1 μg/ml, read-out: HIV-1 integrase inhibition, % no drug control): 108%
- remaining activity at 10 µg/mL ([1]; 10 μg/ml, read-out: HIV-1 integrase inhibition, % no drug control): 117%
- remaining activity at 100 µg/mL ([1]; 100 μg/ml, read-out: HIV-1 integrase inhibition, % no drug control): 106%
- remaining activity at 0.1 µg/mL ([1]; read-out: HIV-1 integrase inhibition, % no drug control): 98.8%
- % virus control ([2]; 0.64 μM): 79.1%
- DNA Copy Number (per 3 μl), average ([2]; 0.64 μM): 12198.1 per 3 μl
- DNA Copy Number (per 3 μl), sample ([2]; 0.64 μM): 1200.5 per 3 μl and 1258.4 per 3 μl and 1198.4 per 3 μl
- % virus control ([2]; 2 μM): 71.2%
- DNA Copy Number (per 3 μl), average ([2]; 2 μM): 1096.9 per 3 μl
- DNA Copy Number (per 3 μl), sample ([2]; 2 μM): 1100.2 per 3 μl and 1000.7 per 3 μl and 1189.7 per 3 μl
- % virus control ([2]; 6.4 μM): 67.0%
- DNA Copy Number (per 3 μl), average ([2]; 6.4 μM): 1032.6 per 3 μl
- DNA Copy Number (per 3 μl), sample ([2]; 6.4 μM): 1003.5 per 3 μl and 1084.5 per 3 μl and 1009.7 per 3 μl
- % virus control ([2]; 20 μM): 55.8%
- DNA Copy Number (per 3 μl), average ([2]; 20 μM): 860.2 per 3 μl
- DNA Copy Number (per 3 μl), sample ([2]; 20 μM): 747.8 per 3 μl and 841.6 per 3 μl and 991.2 per 3 μl
- % virus control ([2]; 64 μM): 48.9%
- DNA Copy Number (per 3 μl), average ([2]; 64 μM): 753.0 per 3 μl
- % virus control ([2]; 200 μM): 26.6%
- DNA Copy Number (per 3 μl), average ([2]; 200 μM): 410.7 per 3 μl
- TI ([2]; HHV8, BCBL-1 cells): TI = 1.8
- pIC50 ([2]; Human gammaherpesvirus 8, BCBL1, HHV8 DNA copy number, BCBL-1 cells): 4.25
- % virus control ([3]; 0.64 μg/ml): 55.1%
- DNA Copy Number (per 3 μl), mean ([3]; 0.64 μg/ml): 145.8 per 3 μl
- DNA Copy Number (per 3 μl), sample ([3]; 0.64 μg/ml): 131.5 per 3 μl and 155.2 per 3 μl and 150.8 per 3 μl
- % virus control ([3]; 2 μg/ml): 31.9%
- DNA Copy Number (per 3 μl), mean ([3]; 2 μg/ml): 84.3 per 3 μl
- % virus control ([3]; 6.4 μg/ml): 36.1%
- DNA Copy Number (per 3 μl), mean ([3]; 6.4 μg/ml): 95.4 per 3 μl
- % virus control ([3]; 20 μg/ml): 15.8%
- DNA Copy Number (per 3 μl), mean ([3]; 20 μg/ml): 41.9 per 3 μl
- % virus control ([3]; 64 μg/ml): 33.1%
- DNA Copy Number (per 3 μl), mean ([3]; 64 μg/ml): 87.5 per 3 μl
- DNA Copy Number (per 3 μl), sample ([3]; 64 μg/ml): 98.6 per 3 μl and 76.0 per 3 μl and 87.8 per 3 μl
- % virus control ([3]; 200 μg/ml): 22.7%
- DNA Copy Number (per 3 μl), mean ([3]; 200 μg/ml): 60.0 per 3 μl
- IC50 [3, 8]: 0.76 µg/mL (≈ 3.22 µM)
- IC50 ([3]; HEPG2 2.2.15): 0.94 µg/mL (≈ 3.98 µM)
- therapeutic index or TI ([3]; hepatitis B, HEPG2 2.2.15): 212.8
- TI ([3]; hepatitis B, HEPG2 2.2.15, replicate experiment): 263.2
- % cell control ([4]; 0.64 μg/ml): 92.3%
- Toxicity Values, mean ([4]; 0.64 μg/ml): 1.021
- Toxicity Values, sample ([4]; 0.64 μg/ml): 0.985 and 0.999 and 1.079
- % cell control ([4]; 2 μg/ml): 83.0%
- Toxicity Values, mean ([4]; 2 μg/ml): 0.919
- Toxicity Values, sample ([4]; 2 μg/ml): 0.881 and 0.959 and 0.916
- % cell control ([4]; 6.4 μg/ml): 95.6%
- Toxicity Values, mean ([4]; 6.4 μg/ml): 1.058
- Toxicity Values, sample ([4]; 6.4 μg/ml): 0.940 and 1.218 and 1.015
- % cell control ([4]; 20 μg/ml): 84.2%
- Toxicity Values, mean ([4]; 20 μg/ml): 0.932
- Toxicity Values, sample ([4]; 20 μg/ml): 0.966 and 0.921 and 0.909
- % cell control ([4]; 64 μg/ml): 89.5%
- Toxicity Values, mean ([4]; 64 μg/ml): 0.991
- Toxicity Values, sample ([4]; 64 μg/ml): 0.962 and 1.037 and 0.973
- % cell control ([4]; 200 μg/ml): 76.7%
- Toxicity Values, mean ([4]; 200 μg/ml): 0.849
- Toxicity Values, sample ([4]; 200 μg/ml): 0.818 and 0.928 and 0.800
- TC50 ([4]; HEPG2 2.2.15): > 200 µg/mL
- TC50 [4, 8]: > 200 µg/mL
- virus production (supernatant reverse transcriptase activity) ([5]; day 4): 5423
- virus production (supernatant reverse transcriptase activity) ([5]; day 11): 2249
- virus production (supernatant reverse transcriptase activity) ([5]; day 18): 2951
- virus production (supernatant reverse transcriptase activity) ([5]; day 25): 3606
- virus production (supernatant reverse transcriptase activity) ([6]; 7 μg/ml, day 4): 12165
- virus production (supernatant reverse transcriptase activity) ([6]; 7 μg/ml, day 11): 9465
- virus production (supernatant reverse transcriptase activity) ([6]; 7 μg/ml, day 18): 10341
- virus production (supernatant reverse transcriptase activity) ([6]; 7 μg/ml, day 25): 9079
- virus production (supernatant reverse transcriptase activity) ([6]; 7 μg/ml, day 32): 6797
- virus production (supernatant reverse transcriptase activity) ([6]; 7 μg/ml, day 39): 9792
- virus production (supernatant reverse transcriptase activity) ([6]; 7 μg/ml, day 46): 9915
- virus production (supernatant reverse transcriptase activity) ([6]; 7 μg/ml, day 53): 1094
- virus production (supernatant reverse transcriptase activity) ([6]; 15 μg/ml, day 4): 11151
- virus production (supernatant reverse transcriptase activity) ([6]; 15 μg/ml, day 11): 9935
- virus production (supernatant reverse transcriptase activity) ([6]; 15 μg/ml, day 18): 9738
- virus production (supernatant reverse transcriptase activity) ([6]; 15 μg/ml, day 25): 7104
- virus production (supernatant reverse transcriptase activity) ([6]; 15 μg/ml, day 32): 6426
- virus production (supernatant reverse transcriptase activity) ([6]; 15 μg/ml, day 39): 10618
- virus production (supernatant reverse transcriptase activity) ([6]; 15 μg/ml, day 46): 10471
- virus production (supernatant reverse transcriptase activity) ([6]; 15 μg/ml, day 53): 9756
- virus production (supernatant reverse transcriptase activity) ([6]; 30 μg/ml, day 4): 12033
- virus production (supernatant reverse transcriptase activity) ([6]; 30 μg/ml, day 11): 9859
- virus production (supernatant reverse transcriptase activity) ([6]; 30 μg/ml, day 18): 11874
- virus production (supernatant reverse transcriptase activity) ([6]; 30 μg/ml, day 25): 5281
- virus production (supernatant reverse transcriptase activity) ([6]; 30 μg/ml, day 32): 4154
- virus production (supernatant reverse transcriptase activity) ([6]; 30 μg/ml, day 39): 5379
- virus production (supernatant reverse transcriptase activity) ([6]; 30 μg/ml, day 46): 5239
- virus production (supernatant reverse transcriptase activity) ([6]; 30 μg/ml, day 53): 4423
- TC50 [7]: > 200
